Test results taken from ChEMBL document CHEMBL3621110, “Discovery and Development of the Aryl O-Sulfamate Pharmacophore for Oncology and Women's Health” (J Med Chem, 2015).
Blank lines part the entries; values can stand above or below the compound they belong to.

Columns and labels:
[1] = molecular target: T1, Steryl-sulfatase (Homo sapiens, UniProt P08842); assay type: microsomes, Placenta, Microsome
T1 sequence (P08842 whole entry): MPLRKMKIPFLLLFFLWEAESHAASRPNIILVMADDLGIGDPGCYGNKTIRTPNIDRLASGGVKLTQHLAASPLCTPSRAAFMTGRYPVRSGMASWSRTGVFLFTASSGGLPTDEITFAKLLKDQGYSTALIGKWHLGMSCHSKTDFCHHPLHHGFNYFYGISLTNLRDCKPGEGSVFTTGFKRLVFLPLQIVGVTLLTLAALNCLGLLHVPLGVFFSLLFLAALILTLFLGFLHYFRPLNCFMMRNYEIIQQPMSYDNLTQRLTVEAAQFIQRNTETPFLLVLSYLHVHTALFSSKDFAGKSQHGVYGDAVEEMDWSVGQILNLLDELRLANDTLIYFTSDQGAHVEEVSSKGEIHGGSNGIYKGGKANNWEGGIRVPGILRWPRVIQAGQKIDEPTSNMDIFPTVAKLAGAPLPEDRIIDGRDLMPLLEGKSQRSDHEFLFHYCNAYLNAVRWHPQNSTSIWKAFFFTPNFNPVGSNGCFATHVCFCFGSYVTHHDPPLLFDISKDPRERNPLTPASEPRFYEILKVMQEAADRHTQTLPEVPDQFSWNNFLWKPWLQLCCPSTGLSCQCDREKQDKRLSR

[2] = test system: DU-145; experiment: cells; assay type: functional; settings: Homo sapiens
[3] = test system: MDA-MB-231; experiment: cells; assay type: functional; settings: Homo sapiens
[4] = species: Rattus norvegicus; experiment: animal or person; assay type: functional; settings: Wistar, po, 3 h
[5] = molecular target: T1, Steryl-sulfatase; design: species or system Placenta, Microsome
[6] = test system: MCF7; experiment: cells; assay type: functional; settings: Homo sapiens
[7] = molecular target: T1, Steryl-sulfatase; assay type: cell-based, JEG-3
[8] = species: Rattus norvegicus; experiment: animal or person; assay type: functional; settings: Liver, po, 120 h
[9] = test system: LNCaP; experiment: cells; assay type: functional, cell-based; settings: Homo sapiens
[10] = cells; assay type: functional, cell-based; settings: Homo sapiens, PC-3
[11] = test system: A2780cisR; experiment: cells; assay type: functional, cell-based; settings: Homo sapiens
[12] = cells; assay type: functional, cell-based; settings: Homo sapiens, A2780 ADR

GI50 [2]: 100 nM
GI50 [3]: 70 nM
Structure (SMILES): CCOc1c(OC)cc(CN2CCc3cc(OS(N)(=O)=O)c(OC)cc3C2)cc1OC

GI50 [2]: 189 nM
GI50 [3]: 160 nM
Structure (SMILES): COc1ccc(OC)c(CN2Cc3cc(OC)c(OS(N)(=O)=O)cc3CC2C)c1 (configuration not stated)

GI50 [2]: 360 nM
GI50 [3]: 300 nM
Structure (SMILES): COc1cc2c(cc1OS(N)(=O)=O)CCN(Cc1cc(OC)c(OC)c(OC)c1)C2C (configuration not stated)

IC50 [5]: 70 nM
Structure (SMILES): NS(=O)(=O)Oc1ccc2c3c(c(=O)oc2c1)CCCC3

IC50 [5]: 200 nM
Structure (SMILES): NS(=O)(=O)Oc1ccc2c3c(c(=O)oc2c1)CCC3

GI50 [6]: 42 nM
Structure (SMILES): C[C@]12CC[C@@H]3c4ccc(OS(N)(=O)=O)c(Br)c4CC[C@H]3[C@@H]1CCC2=O

IC50 [5]: 60 nM
Structure (SMILES): NS(=O)(=O)Oc1ccc2c3c(c(=O)oc2c1)CCCCCCCCCC3

IC50 [5]: 1 nM
Structure (SMILES): NS(=O)(=O)Oc1ccc2c3c(c(=O)oc2c1)CCCCCCCC3

IC50 [5]: 370 nM
Structure (SMILES): NS(=O)(=O)Oc1ccc2c3c(c(=O)oc2c1)CCCCCCCCCCCCC3

GI50 [2]: 40 nM
GI50 [3]: 40 nM
Structure (SMILES): COc1cc2c(cc1OS(N)(=O)=O)CCN(Cc1cc(Cl)c(OC)c(OC)c1)C2

IC50 [7]: 205 nM
Structure (SMILES): N#Cc1ccc(N(Cc2ccc3c(Br)c(OS(N)(=O)=O)ccc3c2)n2cnnc2)cc1

GI50 [2]: 286 nM
GI50 [3]: 281 nM
Structure (SMILES): CCC1Cc2cc(OS(N)(=O)=O)c(OC)cc2CN1Cc1cccc(OC)c1 (configuration not stated)

IC50 [5]: 30 nM
Structure (SMILES): NS(=O)(=O)Oc1ccc2c3c(c(=O)oc2c1)CCCCCC3

GI50 [2]: 41 nM
GI50 [3]: 52 nM
Structure (SMILES): CCc1cc2c(cc1OS(N)(=O)=O)CCN(Cc1cc(OC)c(OC)c(OC)c1)C2

IC50 [5]: 75 nM
Structure (SMILES): NS(=O)(=O)Oc1ccc2c3c(c(=O)oc2c1)CCCCCCCCCCC3

GI50 [2]: 20 nM
GI50 [3]: 30 nM
Structure (SMILES): CCc1cc2c(cc1OS(N)(=O)=O)CCN(Cc1cc(Br)c(OC)c(OC)c1)C2

GI50 [2]: 299 nM
GI50 [3]: 269 nM
Structure (SMILES): COc1ccc(F)c(CN2Cc3cc(OC)c(OS(N)(=O)=O)cc3CC2C)c1 (configuration not stated)

IC50 [5]: 2.4 nM
Structure (SMILES): NS(=O)(=O)Oc1ccc2c3c(c(=O)oc2c1)CCCCCCC3

More lines, now with the values behind:

Structure (SMILES): CCCCN1C(=O)C[C@H]2[C@@H]3CCc4cc(OS(N)(=O)=O)ccc4[C@H]3CC[C@]2(C)C1=O
IC50 [1]: 382 nM

Structure (SMILES): CCCCCCN1C(=O)C[C@H]2[C@@H]3CCc4cc(OS(N)(=O)=O)ccc4[C@H]3CC[C@]2(C)C1=O
IC50 [1]: 288 nM

Structure (SMILES): N#Cc1ccc(N(Cc2ccc(OS(N)(=O)=O)cc2)n2cnnc2)cc1
inhibition in vivo at 10 mg/kg [4]: 39%

Structure (SMILES): COc1cccc(CN2Cc3cc(OC)c(OS(N)(=O)=O)cc3CC2C)c1 (configuration not stated)
GI50 [3]: 234 nM

Structure (SMILES): Cn1nnc2ccc(C(c3ccc(OS(N)(=O)=O)cc3)n3cncn3)cc21 (configuration not stated)
IC50 [7]: > 10000 nM

Structure (SMILES): N#Cc1ccc(N(Cc2ccc3cc(OS(N)(=O)=O)ccc3c2)n2cnnc2)cc1
IC50 [7]: 367 nM

Structure (SMILES): C=CCN1C(=O)C[C@H]2[C@@H]3CCc4cc(OS(N)(=O)=O)ccc4[C@H]3CC[C@]2(C)C1=O
IC50 [1]: 75 nM

Structure (SMILES): C[C@]12CC[C@@H]3c4ccc(OS(N)(=O)=O)cc4CC[C@H]3[C@@H]1CC(=O)N(Cc1cccnc1)C2=O
IC50 [1]: 1 nM
inhibition in vivo at 10 mg/kg/day [8]: 99%

Structure (SMILES): CC(C)(C)c1ccc(CN2C(=O)C[C@H]3[C@@H]4CCc5cc(OS(N)(=O)=O)ccc5[C@H]4CC[C@]3(C)C2=O)cc1
IC50 [1]: 23 nM

Structure (SMILES): CCc1cc2c(cc1OS(N)(=O)=O)CC[C@@H]1[C@@H]2CC[C@]2(C)C(=O)CC[C@@H]12
GI50 [6]: 340 nM
IC50 [9]: 100 nM
IC50 [10]: 100 nM
IC50 [11]: 100 nM
IC50 [12]: 100 nM

Structure (SMILES): C[C@]12CC[C@@H]3c4ccc(OS(N)(=O)=O)cc4CC[C@H]3[C@@H]1CC(=O)NC2=O
IC50 [1]: 20 nM

Structure (SMILES): C[C@]12CC[C@@H]3c4ccc(OS(N)(=O)=O)cc4CC[C@H]3[C@@H]1CC(=O)N(Cc1ccccc1)C2=O
IC50 [1]: 3 nM

Structure (SMILES): CCN1C(=O)C[C@H]2[C@@H]3CCc4cc(OS(N)(=O)=O)ccc4[C@H]3CC[C@]2(C)C1=O
IC50 [1]: 52 nM

Structure (SMILES): CN1C(=O)C[C@H]2[C@@H]3CCc4cc(OS(N)(=O)=O)ccc4[C@H]3CC[C@]2(C)C1=O
IC50 [1]: 12 nM

Structure (SMILES): COc1cc2c(cc1OS(N)(=O)=O)CCN(Cc1cc(Br)c(OC)c(OC)c1)C2
GI50 [2]: 30 nM
GI50 [3]: 30 nM
